In PMC9149975, “The diaryl-imidazopyridazine anti-plasmodial compound, MMV652103, exhibits anti-breast cancer activity” (EXCLI Journal, 2022):

How the values were obtained:
[1] = system: MCF7 tumors; test: Chick embryo CAM xenograft: tumor weight and metastasis; format: in vivo; details: 25 μM, every 48 h E10-E16, weighed E18
Procedure: All studies and procedures were conducted with prior approval of the Animal Ethics Committee of the University of Cape Town (FHS AEC REF NO:016/025) in accordance with the South African National Standard (SANS 10386:008) for the Care and Use of Animals for Scientific Purposes (SABS, 2015[71]), and guidelines from the Department of Health (2015[21]). Fertilized White Leghorn eggs were incubated at 37.5 °C with 50 % relative humidity for 9 days. At stage E9, the chorioallantoic membrane (CAM) was dropped by drilling a small hole through the eggshell into the air sac and a 1 cm^2 window was cut in the eggshell above the CAM. Cultured MCF7 cells were detached with trypsin, washed with complete medium and suspended in PBS. An inoculum of MCF7 cells was grafted onto the CAM of each E9 egg (21 eggs were used for each condition) and at E10, tumors were detectable. MCF7 tumors were treated every 48 h (E10, E12, E14, E16) by dropping 100 μl of vehicle (0.25 % DMSO in PBS), a reference compound (Paclitaxel), or MMV652103, onto the tumour. At E18 the upper portion of the CAM was removed, transferred to PBS and the tumors cut away from normal CAM tissue and weighed. A one-way ANOVA analysis with post-tests was done. In parallel, a 1 cm^2 portion of the lower CAM was collected to evaluate the number of metastatic cells. The relative amount of metastasis was calculated as follows: Tumor cells were grafted onto the upper chorioallantoic membrane (CAM) and during metastasis the cells invade the epithelium and basement membrane of the upper CAM and move through connective tissue into the vasculature into the lower CAM. The cells in the lower CAM are then harvested and genomic DNA is extracted and analyzed by qPCR with specific primers for Alu sequences which are only found in higher primates i.e. it allows for the distinction between human tumor cells and the host chick cells. Statistical analysis was directly performed on data from the Bio-Rad CFX Manager 3.1 software.

[2] = system: MCF7 cells; test: GSH-Glo Glutathione assay; format: cell-based, human; details: MCF7, 24 h; MMV652103 ½ IC50 and IC50, doxorubicin IC50 (9.84 nM)
Procedure: The increase in ROS levels results in a decrease in the levels of antioxidants. To confirm the presence of intracellular ROS, the levels of the antioxidant, glutathione (GSH), was measured using the GSH-Glo™ Glutathione assay kit (V6911, Promega, Wisconsin, USA), according to the manufacturer's instructions. Briefly, cells (2500-4500 cells per well) were seeded in opaque 96 well plates. Cells were treated for 24 h with either vehicle or MMV652103. Thereafter, the cell culture medium was removed and 100 μl of 1X GSH-Glo™ Reagent (prepared using Luciferin-NT substrate and Glutathione S-Transferase each diluted 1:100 in GSH-Glo™ Reaction Buffer) was added to each well. The plate was then mixed briefly on a shaker and incubated for 10 min at RT. Thereafter, 100 μl reconstituted Luciferin Detection Reagent was added to each well. The plate was then incubated for 15 min RT in order to stabilize the luminescence signal. The plate was read using the GloMax® Explorer Multimode plate reader (Promega, Wisconsin, USA).

| Compound | tumor weight reduction [1] [%] | levels of GSH [2] |
| --- | --- | --- |
| CC(=O)O[C@H]1C(=O)[C@@]2(C)[C@H]([C@H](OC(=O)c3ccccc3)[C@]3(O)C[C@H](OC(=O)[C@H](O)[C@@H](NC(=O)c4ccccc4)c4ccccc4)C(C)=C1C3(C)C)[C@]1(OC(C)=O)CO[C@@H]1C[C@@H]2O [Paclitaxel, reference compound] | 28.22 | – |
| COc1cccc2c1C(=O)c1c(O)c3c(c(O)c1C2=O)C[C@@](O)(C(=O)CO)C[C@@H]3O[C@H]1C[C@H](N)[C@H](O)[C@H](C)O1 [Doxorubicin, reference compound] | – | significant decrease |
